Measured values as given in patent US10473645B2, “Methods for identifying a receptor for a ligand and uses thereof” (UNIVERSITE DE GENEVE, priority 2014, dated 2019).

Legend:
Test in all cases: OR transcript level by RT-qPCR after in vivo odorant exposure
Parameters in all cases: species or system mouse; key: The transcript downregulation of 21 out of the 26 olfactory receptor candidates obtained by RNAseq was confirmed by qPCR; false RNAseq positive candidates, namely OR candidates for which in fact mRNA was not downregulated following acetophenone exposure
Settings in all cases: 5% acetophenone exposure
[1] = system: olfr922
Protocol: (§1) In vivo exposure to odorant: Starting 48 h before experiments, mice were habituated to pure DMSO on a cotton ball. 200 μl were pipetted directly onto the cotton and placed in the cage, replacing any cotton that was already in the cage for nest-making purposes.
(§2) On the day of the experiment, mice receiving odorants were transferred to a different room, where they were exposed to a cotton ball on which 200 μl of odorant diluted in pure DMSO were deposited. Exposures started in the morning between 8 and 10 am (that is two hours after lights were on) and mice were killed and dissected between 1 and 3 pm. […] If a number of different odorants were tested in the same experiment, a different overpressurized room would always be used for each odorant to avoid odor cross-contamination.
(§3) After odorant exposure, mice were killed by cervical dislocation and immediately decapitated. The main olfactory epithelia (MOE), were harvested in their entirety and transferred to a tube containing 600 μl of lysis buffer and β-mercaptoethanol (RNAeasy kit, Qiagen, following the manufacturer protocol) and a 0.5 cm diameter steel ball, and then put on ice. Samples were then homogenized using a FastPrep®-24 instrument (MP Biomedicals) at 6 m/s for 30 s and left on ice. RNA extraction was performed on all samples in parallel using the Qiagen RNeasy Mini® kit following the manufacturer's instructions. Two DNase treatments were performed on all samples: first using the Qiagen RNase-Free DNase Set® and then using the Life Technologies Ambion DNase I® kit. RNA samples were then aliquoted and stored at −80° C.
(§4) RNA concentrations were determined using an Amersham Ultrospec® 3100 Pro spectrophotometer, and RNA quality was evaluated with an Agilent Technologies 2100 Bioanalyzer®. Each reverse transcription was performed with 0.5 μg RNA using the Takara Primescript® kit, in a final volume of 10 μl. Primers for reverse transcription were equal mixtures of poly-T nucleotides and random hexamers. Negative controls (omitting the reverse transcriptase enzyme) were performed for each sample. 1/14th of the cDNA preparation was used for each triplicated qPCR reaction.
(§5) qPCR Ct values were analyzed using an in-house developed Microsoft Excel® macro file. Triplicate values were compared and outliers (values with a difference higher than 0.5 Ct to their nearest neighbor) were discarded. The number of conditions with an outlying value was always less than 10% of the total number of conditions. Ct values were converted to quantities relative to the maximum for each given gene. Selected reference genes were then analyzed for variance using the geNorm algorithm. All values were normalized with the olfactory tissue-specific genes Omp and Adcy3. β-Actin was used as a non-tissue-specific reference gene to control for differences in dissection between samples.
(§6) Mice (n=6) were exposed to 5% acetophenone or to a “neutral” control condition for 5 hours. An olfactory cDNA library corresponding to each animal was deep sequenced and the ratios of odorant receptor mRNA concentrations relative to controls were plotted (FIG. 3). […] Based on transcriptional downregulation levels observed by RNAseq following acetophenone exposure, a list of 26 candidate responsive ORs was determined (FIG. 3), that reached 74% decrease (Olfr145) or even over 80% (Olfr169) relative to controls. […] The transcript downregulation of 21 out of the 26 olfactory receptor candidates obtained by RNAseq was confirmed by qPCR.

[2] = system: olfr109
Protocol: as §1, §2, §3, §4, §5, §6

[3] = system: olfr30
Protocol: as §1, §2, §3, §4, §5, §6

[4] = system: olfr901
Protocol: as §1, §2, §3, §4, §5, §6

[5] = system: olfr1054
Protocol: as §1, §2, §3, §4, §5, §6

[6] = system: olfr378
Protocol: as §1, §2, §3, §4, §5, §6

[7] = system: olfr736
Protocol: as §1, §2, §3, §4, §5, §6

[8] = system: olfr1350
Protocol: as §1, §2, §3, §4, §5, §6

[9] = system: olfr47
Protocol: as §1, §2, §3, §4, §5, §6

[10] = system: olfr750
Protocol: as §1, §2, §3, §4, §5, §6

CC(=O)c1ccccc1 [acetophenone]
olfr922 candidate OR (RNAseq) confirmed by qPCR [1]: y | olfr109 candidate OR (RNAseq) confirmed by qPCR [2]: y | olfr30 candidate OR (RNAseq) confirmed by qPCR [3]: y | olfr901 candidate OR (RNAseq) confirmed by qPCR [4]: y | olfr1054 candidate OR (RNAseq) confirmed by qPCR [5]: y | olfr378 candidate OR (RNAseq) confirmed by qPCR [6]: n | olfr736 candidate OR (RNAseq) confirmed by qPCR [7]: y | olfr1350 candidate OR (RNAseq) confirmed by qPCR [8]: n | olfr47 candidate OR (RNAseq) confirmed by qPCR [9]: y | olfr750 candidate OR (RNAseq) confirmed by qPCR [10]: n
